# PubChem BioAssay AID220 (DTP/NCI, 2004)
# Values joined by “and” are separate entries in the source; they are usually repeats but may differ in a detail not shown here. Identical values can stand only once. Inconclusive results are not listed.
# Test system: CD8F1 mice, subcutaneous mammary adenocarcinoma, T/C%
# Assay: NCI In Vivo Anticancer Drug Screen. Data for tumor model Mammary Adenocarcinoma CD8F1 (subcutaneous) in CD8F1
# Conditions: higher = larger tumour
# How it was run: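 Antitumor activity is assessed in transplantable-tumor mice by comparing the treated group with a vehicle-treated control group. Survival or tumor size serves as the measure, reported as T divided by C.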
# [1] = endpoint: median tumor weight (est.), dose: 3.12 mg/kg/injection, schedule: Q07DX005 (ip), vehicle: saline with Tween-80
# [2] = endpoint: median tumor weight (est.), dose: 6.25 mg/kg/injection, schedule: Q07DX005 (ip), vehicle: saline with Tween-80
# [3] = endpoint: median tumor weight (est.), dose: 12.5 mg/kg/injection, schedule: Q07DX005 (ip), vehicle: saline with Tween-80
structure (smiles),measurement,setting,value
O=C(C#Cc1ccccc1)c1ccccc1,T/C,"endpoint: median tumor weight (est.), dose: 0.39 mg/kg/injection, schedule: Q07DX005 (ip), vehicle: saline with Tween-80",64 % of control
same,T/C,"endpoint: median tumor weight (est.), dose: 0.78 mg/kg/injection, schedule: Q07DX005 (ip), vehicle: saline with Tween-80",68 % of control
same,T/C,"endpoint: median tumor weight (est.), dose: 1.56 mg/kg/injection, schedule: Q07DX005 (ip), vehicle: saline with Tween-80",68 % of control
same,T/C,"endpoint: median tumor weight (est.), dose: 3.12 mg/kg/injection, schedule: Q07DX005 (ip), vehicle: Klucel (hydroxypropylcellulose) (HPC)",47 % of control
same,T/C,[1],53 % of control
same,T/C,[2],67 % of control
same,T/C,[3],46 % of control
N=[N+]=CC(=O)OCC(N)C(=O)O (configuration not stated),T/C,"endpoint: median tumor weight (est.), dose: 6.25 mg/kg/injection, schedule: Q07DX005 (ip), vehicle: clinical formulation",76 % of control
same,T/C,"endpoint: median tumor weight (est.), dose: 6.25 mg/kg/injection, schedule: Q07DX005 (ip), vehicle: water",58 % of control and 79 % of control
same,T/C,"endpoint: median tumor weight (est.), dose: 12.5 mg/kg/injection, schedule: Q07DX005 (ip), vehicle: clinical formulation",71 % of control
same,T/C,"endpoint: median tumor weight (est.), dose: 25.0 mg/kg/injection, schedule: Q07DX005 (ip), vehicle: clinical formulation",32 % of control
same,T/C,"endpoint: median tumor weight (est.), dose: 50.0 mg/kg/injection, schedule: Q07DX005 (ip), vehicle: clinical formulation",29 % of control
same,T/C,"endpoint: median tumor weight (est.), dose: 50.0 mg/kg/injection, schedule: Q07DX005 (ip), vehicle: water",65 % of control
COc1cccc2c1C(=O)c1c(O)c3c(c(O)c1C2=O)C[C@@](O)(C(=O)CO)C[C@@H]3OC1CC(N(C)C)C(O)C(C)O1 (some centres not stated),T/C,"endpoint: median tumor weight (est.), dose: 2.67 mg/kg/injection, schedule: Q07DX005 (ip), vehicle: water",88 % of control
CCC[CH2][Hg][Cl],T/C,"endpoint: median tumor weight (est.), dose: 2.5 mg/kg/injection, schedule: Q07DX005 (ip), vehicle: Klucel (hydroxypropylcellulose) (HPC)",197 % of control
same,T/C,"endpoint: median tumor weight (est.), dose: 5.0 mg/kg/injection, schedule: Q07DX005 (ip), vehicle: Klucel (hydroxypropylcellulose) (HPC)",112 % of control
same,T/C,"endpoint: median tumor weight (est.), dose: 20.0 mg/kg/injection, schedule: Q07DX005 (ip), vehicle: Klucel (hydroxypropylcellulose) (HPC)",110 % of control
CC1=CC(C)(C)Nc2ccc(CSc3ccccc3)cc21,T/C,"endpoint: median tumor weight change, dose: 50.0 mg/kg/injection, schedule: Q01DX001 (ip), vehicle: saline + Tween-80 + alcohol",46 % of control
same,T/C,"endpoint: median tumor weight change, dose: 62.0 mg/kg/injection, schedule: Q01DX001 (ip), vehicle: DMSO",37 % of control
same,T/C,"endpoint: median tumor weight change, dose: 100.0 mg/kg/injection, schedule: Q01DX001 (ip), vehicle: saline + Tween-80 + alcohol",37 % of control
same,T/C,"endpoint: median tumor weight change, dose: 125.0 mg/kg/injection, schedule: Q01DX001 (ip), vehicle: DMSO",38 % of control
same,T/C,"endpoint: median tumor weight change, dose: 200.0 mg/kg/injection, schedule: Q01DX001 (ip), vehicle: saline + Tween-80 + alcohol",47 % of control
same,T/C,"endpoint: median tumor weight change, dose: 250.0 mg/kg/injection, schedule: Q01DX001 (ip), vehicle: DMSO",29 % of control
same,T/C,"endpoint: median tumor weight change, dose: 400.0 mg/kg/injection, schedule: Q01DX001 (ip), vehicle: saline + Tween-80 + alcohol",46 % of control
same,T/C,"endpoint: median tumor weight change, dose: 800.0 mg/kg/injection, schedule: Q01DX001 (ip), vehicle: saline + Tween-80 + alcohol",32 % of control
same,T/C,"endpoint: median tumor weight change, dose: 2000.0 mg/kg/injection, schedule: Q01DX001 (ip), vehicle: DMSO",61 % of control
Cc1cc(O)c2c(c1O)C(=O)C13C(=C2O)C(=O)C2C(O)C1C1C(O)C3C(=O)C3=C(O)c4c(O)cc(C)c(O)c4C(=O)C321 (configuration not stated),T/C,"endpoint: median tumor weight change, dose: 15.62 mg/kg/injection, schedule: Q01DX001 (ip), vehicle: saline with Tween-80",38 % of control
same,T/C,"endpoint: median tumor weight change, dose: 31.25 mg/kg/injection, schedule: Q01DX001 (ip), vehicle: saline with Tween-80",100 % of control
[Cl][Pt+2][Cl].[NH-]CC1(C[NH-])CCC1,T/C,"endpoint: median tumor weight change, dose: 12.5 mg/kg/injection, schedule: Q01DX001 (ip), vehicle: suspension in saline",79 % of control
NC(N)=NC(N)=Nc1ccc(-c2ccc(N=C(N)N=C(N)N)cc2)cc1,T/C,[1],108 % of control
same,T/C,[2],118 % of control
same,T/C,[3],156 % of control
O=C(O)CC(=O)O.[NH-]CC[NH-].[Pt+2],T/C,"endpoint: median tumor weight (est.), dose: 14.06 mg/kg/injection, schedule: Q07DX005 (ip), vehicle: dextrose",14 % of control
same,T/C,"endpoint: median tumor weight (est.), dose: 28.13 mg/kg/injection, schedule: Q07DX005 (ip), vehicle: dextrose",25 % of control
same,T/C,"endpoint: median tumor weight (est.), dose: 56.25 mg/kg/injection, schedule: Q07DX005 (ip), vehicle: dextrose",14 % of control
same,T/C,"endpoint: median tumor weight (est.), dose: 112.5 mg/kg/injection, schedule: Q07DX005 (ip), vehicle: dextrose",13 % of control
same,T/C,"endpoint: median tumor weight (est.), dose: 225.0 mg/kg/injection, schedule: Q07DX005 (ip), vehicle: dextrose",3 % of control
